Where two headings read alike, the source gives them in different places.
Columns and labels:
[1] = test system: GYKI 20039 induced tremor; experiment: Tremor test in mice (GYKI 20039 induced tremor); format: in vivo; conditions: for ED50: Mus musculus, ip; for Tremor inhibitory effect ED50: i.p.
Excerpt: Tremor can be induced by administration of GYKI 20039 (3-(2,6-dichlorophenyl)-2-iminothiazolidine). The method was published by Kocsis P., Tarnawa I., Kovács Gy., Szombathelyi Zs., Farkas S., 2002; Acta Pharmaceut. Hung., 72:49-61; U.S. Pat. No. 5,340,823, 1994, U.S. Pat. No. 5,198,446, JP 1992270293, EP 0468825, 1990 HU 4647.
The aim of our experiments was to decide if the effect of tolperisone is influenced by co-administration of dextromethorphan.

[2] = in humans; cited from earlier work
[3] = test system: neuropathic pain (allodynia); experiment: Rat allodynia model (Bennet-Xie model, von Frey filaments); format: in vivo; conditions: for analgesic effect in the allodynia model (in words): i.p., dextromethorphan 10 mg/kg alone or in combined treatment with tolperisone
Excerpt: In our experiments, we applied the Bennet-Xie model (G. J. Bennett, Y.-K. Xie, Pain 33: 87-107; 1988) to test the effect of the combination against neuropathic pain. We measured the threshold of the pain reaction with von Frey filaments calibrated to 0.9, 1.2, 1.8, 3.6, 5.4, 6.9, 8.9, 12 and 20 g.

[4] = test system: monosynaptic reflex, hemisected spinal cord preparation; experiment: Spinal reflex inhibitory action in vitro, hemisected spinal cord preparation
Procedure: Spinal reflex Inhibitory Action, In Vitro
Our experiments were performed according to the methods described by Otsuka and Konishi (Otsuka and Konishi, Nature 1974. 252, 733.), with slight modifications (Kocsis et al., Brain Res. Bull. 2003. 60, 81.).
This experiment is suitable for testing central muscle relaxant activity. In the tremor test the efficacy of drugs may be considerably influenced by metabolic and pharmacokinetic factors, therefore we used an in vitro model to investigate the pharmacodynamic interaction between the components of the combination without the interference of the above factors.
We determined the dose-response curve for monosynaptic reflex inhibition of dextromethorphan alone, and in the presence of tolperisone or eperisone. In the control study we measured the effect of dextromethorphan at 0.25; 0.5 and 1 μM. In other experiments we added tolperisone (25 μM) or eperisone (20 μM) to the perfusion solution, and taking the equilibrium responses in these conditions as references, we measured the reflex inhibitory action of dextromethorphan. […] The potentiating effect of eperisone has been even more expressed (see Table 4.).

pain = conditions: cited from earlier work
[5] = 15-minute pre-treatment, dose causing 50% tremor inhibition, read-out: Tremor inhibitory effect ED50
[6] = 15-minute pre-treatment, dose causing 50% tremor inhibition

Clc1ccc2nsnc2c1NC1=NCCN1 [Tizanidine]
ED50 [1, 5]: 0.73 mg/kg

CC12CC3CC(C)(C1)CC(N)(C3)C2 [Memantine]
ED50 [1, 5]: 20.5 mg/kg

Cc1ccccc1-n1c(CF)nc2ccc(N)cc2c1=O [Afloqualon]
Tremor inhibitory effect ED50 [1, 6]: 11.1 mg/kg

CCc1ccc(C(=O)C(C)CN2CCCCC2)cc1 (stereo not shown) [Eperisone, 2-mehyl-1-(4-ethylphenyl)-3-(1-piperidinyl)-1-propanone]
Tremor inhibitory effect ED50 [1, 6]: 51.8 mg/kg

NCC(CC(=O)O)c1ccc(Cl)cc1 (stereo not shown) [Baclofen]
ED50 [1, 5]: 9.1 mg/kg

Cc1ccccc1OCC(O)CO (stereo not shown) [Mephenesin]
ED50 [1, 5]: 81.5 mg/kg

Cc1ccc(C(=O)C(C)CN2CCCCC2)cc1 (stereo not shown) [Tolperisone, 2-mehyl-1-(4-methylphenyl)-3-(1-piperidinyl)-1-propanone]
Inhibition of tremor (control %) Mean ([1]; 40 mg/kg tolperisone i.p.): 27 control % | Inhibition of tremor (control %) Mean ([1]; 60 mg/kg tolperisone i.p.): 48 control % | Tremor inhibitory effect ED50 [1, 6]: 60.0 mg/kg | Inhibition of tremor (%) ([1]; tolperisone 60 mg/kg i.p., dextromethorphan 0 mg/kg): 48.3% | ED50 for the tremor inhibitory activity ([1]; tolperisone alone): 55.0 ± 7.2 mg/kg | oral bioavailability [2]: 16-20% | analgesic effect in the allodynia model (in words) [3]: significant analgesic effect | Threshold value (g) mean ([3]; tolperisone 20 mg/kg i.p., time 0 min): 3.6 g | Threshold value (g) mean ([3]; tolperisone 20 mg/kg i.p., time 10 min): 14.89 g | Threshold value (g) mean ([3]; tolperisone 20 mg/kg i.p., time 20 min): 10.31 g | Reflex Inhibition (%) ([4]; tolperisone 25 μM alone): 26.97% | Reflex Inhibition (%) ([4]; tolperisone 50 μM alone): 48.61% | Reflex Inhibition (%) ([4]; tolperisone 100 μM alone): 70.30% | IC50 ([4]; tolperisone alone, sigmoid fitting, read-out: IC50 of tolperisone, reflex inhibitory activity): 52.4 µM

COc1ccc2c(c1)[C@]13CCCC[C@@H]1[C@H](C2)N(C)CC3 (racemic) [Dextromethorphan, (+/−)-3-methoxi-17-methylmorphinan]
Inhibition of tremor (control %) Mean ([1]; 10 mg/kg dextromethorphan i.p.): 8 control % | tremor inhibition (in words) ([1]; 10 mg/kg dextromethorphan, 10-minute pre-treatment): no significant tremor inhibition | ED50 ([1]; read-out: ED50 of inhibition of the tremor): 24.4 mg/kg | effect in the treatment of chronic pain (pain; clinical trials, Ben-Abraham and Weinbroum 2000): ineffective | effect in an experimental human pain model (pain; clinically acceptable dose range, Kaippula et al. 1995): no effect | relieving acute ischemic pain (pain; in humans, Plesan et al. 2000): without effect | Threshold value (g) mean ([3]; dextromethorphan 10 mg/kg i.p., time 0 min): 3.26 g | Threshold value (g) mean ([3]; dextromethorphan 10 mg/kg i.p., time 10 min): 7.57 g | Threshold value (g) mean ([3]; dextromethorphan 10 mg/kg i.p., time 20 min): 6.03 g | analgesic effect in the allodynia model (in words) [3]: practically ineffective | inhibition at 0.25 µM ([4]; dextromethorphan 0.25 μM alone): 20.7% | inhibition at 0.5 µM ([4]; dextromethorphan 0.5 μM alone): 36.6% | inhibition at 1 µM ([4]; dextromethorphan 1 μM alone): 40.9% | IC50 ([4]; dextromethorphan alone, read-out: IC50 of dextromethorphan, reflex inhibitory activity): 1.56 µM

Source: patent US20060199841A1, “Pharmaceutical combination for the treatment of spasticity and/or pain” (priority 2003, published 2006)
